Source: US11279703B2, “Fused pyrimidine compounds as BRD4 and JAK2 dual inhibitors and methods for use thereof” (APTOSE BIOSCIENCES INC., priority 2016, dated 2022)

Columns and labels:
BRD4-BD1 = BRD4-BD1 (Homo sapiens (Human), UniProt O60885); assay: AlphaLisa bromodomain binding assay, BRD4-BD1; conditions: Table 6; read-out: BRD4(1) IC50
BRD4-BD2 = BRD4-BD2 (Homo sapiens (Human), UniProt O60885); assay: AlphaLisa bromodomain binding assay, BRD4-BD2; conditions: Table 6; read-out: BRD4(2) IC50
Excerpt: (§1) An AlphaLisa assay was used to observe bromodomain binding and measure IC50s for the compounds disclosed herein. An AlphaLisa assay is a bead-based assay used to detect interactions between bromodomains and polyacetylated histone peptides. Donor and acceptor beads bound to target and ligand are brought into proximity by this protein-protein interaction.
(§2) Equipment Required • 1. […] Plate centrifuge • 3. Plate shaker • 4. […] Single channel and multi-channel pipettes • 6. Microplate reader (Pherastar)
(§3) Stock and Final Assay Concentrations (FAC) • 1. All reference and test compounds are made at a concentration of 10 mM in DMSO. Compounds are serially diluted in DMSO and a FAC starting from 10 μM to 10 point 3 fold serial dilutions is arrived. FAC of DMSO is 1%. • 2. Enzyme stock and FAC
(§4) Biotinylated substrate (Acetylated histone H4, biotinylated substrate—cat no. AS64989-025, Anaspec) stock and FAC
(§5) • 4. Acceptor and donor beads stock and FAC
(§6) Buffers • For the enzyme and substrate dilution following buffer is used (for 50 ml) • HEPES: 50 mM 2.5 ml • NaCl: 25 mM 1.25 ml • DTT: 10 mM 0.05 ml • BSA: 0.1% 0.05 g • MilliQ water: 45.7 ml • For dilution of acceptor and donor beads AlphaLISA 5× epigenetics Buffer Perkin Elmer (Cat: AL008C) is used at 1× concentration.
(§7) Procedure • 1. […] Tap the plate gently • 3. […] Cover with plate sealer • 5. […] Incubate the plate at room temperature for 10 minutes • 7. Add 10 μl of the substrate • 8. Cover with plate sealer • 9. […] Cover with plate sealer • 14. […] Cover with plate sealer • 18.
(§8) The percent inhibition is calculated in the excel analysis template and the IC50 values are subsequently determined using a sigmoidal dose-response curve (variable slope) using GraphPad Prism® 5 software.

BRD2-BD1 = BRD2-BD1 (Homo sapiens (Human), UniProt P25440); assay: AlphaLisa bromodomain binding assay, BRD2-BD1; conditions: Table 6; read-out: BRD2(1) IC50
Excerpt: as §1, §2, §3, §4, §5, §6, §7, §8

BRD3-BD1 = BRD3-BD1 (Homo sapiens (Human), UniProt Q15059); assay: AlphaLisa bromodomain binding assay, BRD3-BD1; conditions: Table 6; read-out: BRD3(1) IC50
Excerpt: as §1, §2, §3, §4, §5, §6, §7, §8

BRDT-BD1 = BRDT-BD1 (Homo sapiens (Human), UniProt Q58F21); assay: AlphaLisa bromodomain binding assay, BRDT-BD1; conditions: Table 6; read-out: BRDT(1) IC50
Excerpt: as §1, §2, §3, §4, §5, §6, §7, §8

JAK2 = JAK2 (Homo sapiens (Human), UniProt O60674); assay: HTRF kinase assay, JAK2; format: biochemical; conditions: Table 6
JAK1 = JAK1 (Homo sapiens (Human), UniProt P23458); assay: HTRF kinase assay, JAK1; format: biochemical; conditions: Table 6
Excerpt: (§9) A kinase assay with HTRF was used to observe JAK activity and calculate the IC50s of compounds disclosed herein. HTRF is an enzymatic assay used to determine the amount of phosphorylated peptide. FRET (Fluorescence Resonance Energy Transfer) is based on the transfer of energy between two fluorophores—a donor and an acceptor—when in close proximity. Molecular interactions between biomolecules can be assessed by coupling each partner with a fluorescent label and by detecting the level of energy transfer. The amount of phopshorylated peptide can be detected using a combination of a Eu 3+Cryptate labeled anti-phospho residue antibody, SA-XL665 and a biotinylated substrate. The signal is proportional to the concentration of phospho-residues.
(§10) Equipment Required • 1. […] Plate centrifuge • 3. Plate shaker • 4. […] Single channel and multi-channel pipettes • 6. Microplate reader (Pherastar)]
(§11) Stock and Final Assay Concentrations (FAC) • 1. All reference and test compounds are made at a concentration of 10 mM in DMSO. Compounds are serially diluted in DMSO and a FAC starting from 10 μM to 10 point 3 fold serial dilutions is arrived. For Ruxolitinib the starting FAC is 1 μM. FAC of DMSO is 1%. • 2. Enzyme stock and FAC
(§12) • JAK-1: Invtirogen Cat: PR8767C • JAK-2: Invtirogen Cat: PR7820B • JAK-3: Invtirogen Cat: PR7507B • 3. Substrate (synthetic peptide-Biotinylated-N-terminal tag-[…] from Biopeptide) stock and FAC
(§13) • Adenosine 5′-triphosphate disodium salt hydrate: Sigma Cat: A26209 • 5. […] Buffers • Base buffer (for 50 ml)
(§14) • HTRF buffer: • 50 mM Tris-HCl, pH—7.5 • 100 mM NaCl • 0.1% BSA • 0.05% Tween20 • 0.5 mM EDTA
(§15) To a 384 well black-plate: • 1. Add 17 μL of the buffer to each well of the 384-well black plate • 2. […] Add 5 μl of the enzyme to each well of the plate • 4. Add 10 μl of the substrate and ATP mix to all the wells • 5. Cover with plate sealer • 6. […] Incubate at room temperature for 1 hour on shaker • 8. […] Add 37.5 μL of the HTRF mix to these wells. • 9. Incubate the plate at room temperature on shaker for 45 minutes. • 10.
as §8

JAK3 = JAK3 (Homo sapiens (Human), UniProt P52333); assay: HTRF kinase assay, JAK3; format: biochemical; conditions: Table 6
Excerpt: as §9, §10, §11, §12, §13, §14, §15, §8

Chain of BRD2-BD1 (P25440 74-180): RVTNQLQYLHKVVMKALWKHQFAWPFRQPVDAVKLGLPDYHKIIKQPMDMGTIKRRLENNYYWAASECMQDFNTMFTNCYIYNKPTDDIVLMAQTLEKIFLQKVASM
Chain of JAK3 (P52333 whole entry): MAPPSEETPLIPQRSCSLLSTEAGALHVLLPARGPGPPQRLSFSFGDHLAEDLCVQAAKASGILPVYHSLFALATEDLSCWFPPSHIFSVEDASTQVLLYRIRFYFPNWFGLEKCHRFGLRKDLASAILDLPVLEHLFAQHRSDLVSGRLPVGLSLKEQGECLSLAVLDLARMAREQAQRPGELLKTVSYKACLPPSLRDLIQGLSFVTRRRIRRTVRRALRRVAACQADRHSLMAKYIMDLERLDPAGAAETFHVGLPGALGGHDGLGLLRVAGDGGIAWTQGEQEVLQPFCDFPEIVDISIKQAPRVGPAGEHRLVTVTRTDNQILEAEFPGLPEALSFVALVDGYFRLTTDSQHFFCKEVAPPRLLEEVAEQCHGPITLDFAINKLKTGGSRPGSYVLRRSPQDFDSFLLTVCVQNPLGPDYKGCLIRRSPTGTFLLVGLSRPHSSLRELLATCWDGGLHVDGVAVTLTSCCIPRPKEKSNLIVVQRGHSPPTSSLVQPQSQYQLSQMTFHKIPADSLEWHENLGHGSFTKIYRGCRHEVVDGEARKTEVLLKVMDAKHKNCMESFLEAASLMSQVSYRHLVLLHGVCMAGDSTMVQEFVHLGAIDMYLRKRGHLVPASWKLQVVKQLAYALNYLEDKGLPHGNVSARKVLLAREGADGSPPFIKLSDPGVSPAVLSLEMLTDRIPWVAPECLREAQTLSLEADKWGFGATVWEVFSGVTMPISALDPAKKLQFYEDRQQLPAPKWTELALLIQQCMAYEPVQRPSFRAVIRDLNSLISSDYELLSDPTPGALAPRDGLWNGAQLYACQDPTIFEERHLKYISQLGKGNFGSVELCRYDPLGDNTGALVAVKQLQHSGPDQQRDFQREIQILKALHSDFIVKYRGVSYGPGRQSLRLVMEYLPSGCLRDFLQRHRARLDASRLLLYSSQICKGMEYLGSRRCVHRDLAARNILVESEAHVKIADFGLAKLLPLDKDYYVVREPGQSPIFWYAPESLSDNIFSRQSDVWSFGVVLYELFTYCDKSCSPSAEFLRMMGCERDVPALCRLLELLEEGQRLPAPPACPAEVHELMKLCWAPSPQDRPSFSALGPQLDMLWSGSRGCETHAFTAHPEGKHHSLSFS
Chain of JAK2 (O60674 whole entry): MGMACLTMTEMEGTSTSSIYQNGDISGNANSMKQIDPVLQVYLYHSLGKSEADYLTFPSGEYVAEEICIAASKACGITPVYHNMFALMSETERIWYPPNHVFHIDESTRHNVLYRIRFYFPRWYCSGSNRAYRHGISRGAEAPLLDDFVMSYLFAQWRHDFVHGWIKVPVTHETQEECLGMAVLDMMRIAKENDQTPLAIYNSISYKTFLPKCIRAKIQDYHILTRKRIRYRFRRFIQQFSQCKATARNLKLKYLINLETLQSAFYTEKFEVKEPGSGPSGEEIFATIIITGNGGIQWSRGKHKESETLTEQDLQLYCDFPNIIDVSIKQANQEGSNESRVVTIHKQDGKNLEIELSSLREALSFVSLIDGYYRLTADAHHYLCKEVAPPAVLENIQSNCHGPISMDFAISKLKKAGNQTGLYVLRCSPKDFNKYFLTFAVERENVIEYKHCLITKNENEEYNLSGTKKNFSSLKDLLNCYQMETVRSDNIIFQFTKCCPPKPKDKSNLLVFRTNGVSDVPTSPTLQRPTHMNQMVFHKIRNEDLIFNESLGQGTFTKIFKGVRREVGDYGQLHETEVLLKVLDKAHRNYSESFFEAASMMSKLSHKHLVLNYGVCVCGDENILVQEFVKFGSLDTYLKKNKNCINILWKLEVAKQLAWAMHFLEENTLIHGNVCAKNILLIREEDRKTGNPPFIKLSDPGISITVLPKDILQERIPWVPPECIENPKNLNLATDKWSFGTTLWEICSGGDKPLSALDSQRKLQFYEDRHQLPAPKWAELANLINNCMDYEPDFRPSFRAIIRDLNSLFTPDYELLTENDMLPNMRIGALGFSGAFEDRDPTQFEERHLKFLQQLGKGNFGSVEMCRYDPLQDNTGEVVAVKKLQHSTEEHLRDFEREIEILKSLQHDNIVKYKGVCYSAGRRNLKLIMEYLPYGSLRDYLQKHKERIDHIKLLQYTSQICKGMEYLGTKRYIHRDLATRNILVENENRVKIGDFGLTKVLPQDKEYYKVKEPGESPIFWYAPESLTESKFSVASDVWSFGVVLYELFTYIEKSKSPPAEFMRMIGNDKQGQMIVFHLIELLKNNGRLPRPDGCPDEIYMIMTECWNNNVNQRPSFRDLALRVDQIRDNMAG
Chain of BRD3-BD1 (Q15059 34-140): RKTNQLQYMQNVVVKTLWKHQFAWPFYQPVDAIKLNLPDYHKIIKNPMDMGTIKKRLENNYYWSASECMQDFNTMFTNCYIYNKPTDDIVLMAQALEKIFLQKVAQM
Chain of JAK1 (P23458 whole entry): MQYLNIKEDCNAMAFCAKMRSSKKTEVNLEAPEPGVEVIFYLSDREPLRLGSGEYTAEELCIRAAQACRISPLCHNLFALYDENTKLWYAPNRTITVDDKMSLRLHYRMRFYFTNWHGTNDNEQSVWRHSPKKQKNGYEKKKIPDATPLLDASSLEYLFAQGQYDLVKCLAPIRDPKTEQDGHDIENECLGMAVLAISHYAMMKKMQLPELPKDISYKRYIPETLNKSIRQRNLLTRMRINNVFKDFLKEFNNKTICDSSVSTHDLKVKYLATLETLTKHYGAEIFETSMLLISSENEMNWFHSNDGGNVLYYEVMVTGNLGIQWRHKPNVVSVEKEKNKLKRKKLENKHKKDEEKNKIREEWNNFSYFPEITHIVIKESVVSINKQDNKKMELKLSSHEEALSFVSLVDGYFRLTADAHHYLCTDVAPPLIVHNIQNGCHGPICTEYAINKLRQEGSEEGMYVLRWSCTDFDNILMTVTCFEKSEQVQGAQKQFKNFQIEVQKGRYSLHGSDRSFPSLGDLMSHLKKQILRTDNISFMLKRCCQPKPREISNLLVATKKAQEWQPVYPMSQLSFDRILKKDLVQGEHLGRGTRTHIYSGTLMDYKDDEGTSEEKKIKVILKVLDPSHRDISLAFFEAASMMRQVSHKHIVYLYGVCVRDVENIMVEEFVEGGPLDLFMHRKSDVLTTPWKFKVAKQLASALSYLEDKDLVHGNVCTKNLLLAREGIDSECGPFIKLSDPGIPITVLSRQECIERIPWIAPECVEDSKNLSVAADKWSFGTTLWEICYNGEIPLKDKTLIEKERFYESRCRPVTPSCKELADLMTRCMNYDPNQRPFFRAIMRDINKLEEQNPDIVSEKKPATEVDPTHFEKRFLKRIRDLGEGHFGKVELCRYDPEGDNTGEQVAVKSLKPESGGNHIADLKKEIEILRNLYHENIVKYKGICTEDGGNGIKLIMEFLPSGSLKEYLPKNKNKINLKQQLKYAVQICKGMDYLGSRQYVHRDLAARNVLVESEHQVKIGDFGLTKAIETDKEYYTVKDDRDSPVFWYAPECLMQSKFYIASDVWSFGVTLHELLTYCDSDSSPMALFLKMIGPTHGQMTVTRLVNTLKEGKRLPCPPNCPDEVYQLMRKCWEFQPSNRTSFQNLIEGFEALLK

CNCCNC(=O)Cc1ccc(Nc2ncc3ccn(-c4cccc(NS(=O)(=O)C(C)(C)C)c4)c3n2)cc1
IC50 (BRD4-BD1): 205 nM | IC50 (BRD4-BD2): 67 nM | IC50 (BRD2-BD1): 576 nM | IC50 (BRD3-BD1): 117 nM | IC50 (BRDT-BD1): 268 nM | IC50 (JAK2): 50 nM | IC50 (JAK1): 178 nM | IC50 (JAK3): 253 nM

CN(C)C1CCN(c2ccc(Nc3ncc4ccn(-c5cccc(NS(=O)(=O)C(C)(C)C)c5)c4n3)cc2)CC1 [drawing 317]
IC50 (BRD4-BD1): 173 nM | IC50 (BRD4-BD2): 62 nM | IC50 (BRD2-BD1): 632 nM | IC50 (BRD3-BD1): 164 nM | IC50 (BRDT-BD1): 406 nM | IC50 (JAK2): 7.3 nM | IC50 (JAK1): 400 nM | IC50 (JAK3): 81 nM

CN1CCN(c2ccc(Nc3ncc4ccn(-c5cccc(NS(=O)(=O)C6CC6)c5)c4n3)cc2)CC1 [drawing 297]
IC50 (BRD4-BD1): 1460 nM | IC50 (BRD4-BD2): 1350 nM | IC50 (BRD2-BD1): 6210 nM | IC50 (BRD3-BD1): 1740 nM | IC50 (BRDT-BD1): 2630 nM | IC50 (JAK2): 4.3 nM | IC50 (JAK3): 31 nM

CN1CCN(c2ccc(Nc3ncc4ccn(-c5cccc(NS(=O)(=O)C(C)(C)C)c5)c4n3)cc2F)CC1
IC50 (BRD4-BD1): 434 nM | IC50 (BRD4-BD2): 487 nM | IC50 (BRD2-BD1): 2860 nM | IC50 (BRD3-BD1): 652 nM | IC50 (BRDT-BD1): 1110 nM | IC50 (JAK2): 18 nM | IC50 (JAK1): 424 nM | IC50 (JAK3): 125 nM

CN1CCN(c2ccc(Nc3ncc4ccn(-c5cccc(NS(=O)(=O)C6CC6)c5)c4n3)cc2)CC1 [drawing 278]
IC50 (BRD4-BD1): 355 nM | IC50 (BRD4-BD2): 729 nM | IC50 (BRD2-BD1): 1900 nM | IC50 (BRD3-BD1): 825 nM | IC50 (BRDT-BD1): 2500 nM | IC50 (JAK2): 2.5 nM | IC50 (JAK1): 244 nM | IC50 (JAK3): 69 nM

CN(C)C1CCN(c2ccc(Nc3ncc4scc(-c5ccc(F)c(NS(=O)(=O)C6(C)CC6)c5)c4n3)cc2F)CC1
IC50 (BRD4-BD1): 233 nM | IC50 (BRD4-BD2): 203 nM | IC50 (BRD2-BD1): 605 nM | IC50 (BRD3-BD1): 196 nM | IC50 (BRDT-BD1): 329 nM | IC50 (JAK2): 11 nM | IC50 (JAK1): 734 nM | IC50 (JAK3): 60 nM

CC(C)(C)S(=O)(=O)Nc1cccc(-n2ccc3cnc(Nc4ccc(C(=O)NC5CCNCC5)c(F)c4)nc32)c1
IC50 (BRD4-BD1): 398 nM | IC50 (BRD4-BD2): 99 nM | IC50 (BRD2-BD1): 467 nM | IC50 (BRD3-BD1): 78 nM | IC50 (BRDT-BD1): 312 nM | IC50 (JAK1): 206 nM | IC50 (JAK3): 242 nM

CC(C)(C)S(=O)(=O)Nc1cccc(-n2ccc3cnc(Nc4ccc(N5CCNCC5)cc4)nc32)c1 [drawing 283]
IC50 (BRD4-BD1): 152 nM | IC50 (BRD4-BD2): 254 nM | IC50 (BRD2-BD1): 1580 nM | IC50 (BRD3-BD1): 500 nM | IC50 (BRDT-BD1): 632 nM | IC50 (JAK2): 12 nM | IC50 (JAK1): 418 nM | IC50 (JAK3): 67 nM

CC(C)(C)S(=O)(=O)Nc1cccc(-c2csc3cnc(Nc4ccc5c(c4)CCN4CCNCC54)nc23)c1 (stereo not drawn)
IC50 (BRD4-BD1): 109 nM | IC50 (BRD4-BD2): 131 nM | IC50 (BRD2-BD1): 489 nM | IC50 (BRD3-BD1): 100 nM | IC50 (BRDT-BD1): 281 nM | IC50 (JAK2): 2 nM | IC50 (JAK1): 44 nM | IC50 (JAK3): 18 nM

CC(C)(C)S(=O)(=O)Nc1cccc(-n2ccc3cnc(Nc4ccc(C5CCNCC5)cc4)nc32)c1
IC50 (BRD4-BD1): 676 nM | IC50 (BRD4-BD2): 325 nM | IC50 (BRD2-BD1): 1400 nM | IC50 (BRD3-BD1): 570 nM | IC50 (BRDT-BD1): 322 nM | IC50 (JAK1): 473 nM | IC50 (JAK3): 100 nM

CN(C)C1CCN(C(=O)c2ccc(Nc3ncc4ccn(-c5cccc(NS(=O)(=O)C(C)(C)C)c5)c4n3)cc2F)CC1
IC50 (BRD4-BD1): 246 nM | IC50 (BRD4-BD2): 29 nM | IC50 (BRD2-BD1): 318 nM | IC50 (BRD3-BD1): 117 nM | IC50 (BRDT-BD1): 189 nM | IC50 (JAK2): 20 nM | IC50 (JAK1): 1100 nM | IC50 (JAK3): 292 nM

Cc1cnc(Nc2ccc(C(=O)NC3CCN(C)CC3)c(F)c2)nc1Nc1ccc2c(c1)N(S(=O)(=O)C(C)(C)C)CC2
IC50 (BRD4-BD1): 87 nM | IC50 (BRD4-BD2): 30 nM | IC50 (BRD2-BD1): 157 nM | IC50 (BRD3-BD1): 92 nM | IC50 (BRDT-BD1): 131 nM | IC50 (JAK2): 24 nM | IC50 (JAK1): 1010 nM

CNC1CCN(c2ccc(Nc3ncc4ccn(-c5ccc(F)c(NS(=O)(=O)C(C)(C)C)c5)c4n3)cc2F)CC1 [drawing 457]
IC50 (BRD4-BD1): 150 nM | IC50 (BRD4-BD2): 88 nM | IC50 (BRD2-BD1): 420 nM | IC50 (BRDT-BD1): 302 nM | IC50 (JAK2): 52 nM | IC50 (JAK1): 9900 nM | IC50 (JAK3): 608 nM

Cc1cnc(Nc2ccc(N3CCN(C)CC3)c(F)c2)nc1Nc1ccc2c(c1)N(S(=O)(=O)C(C)(C)C)CC2 [drawing 246]
IC50 (BRD4-BD1): 93.4 nM | IC50 (BRD4-BD2): 112 nM | IC50 (BRD2-BD1): 254 nM | IC50 (BRD3-BD1): 183 nM | IC50 (BRDT-BD1): 228 nM | IC50 (JAK3): 313 nM

COc1cc(Nc2ncc3ccn(-c4cccc(NS(=O)(=O)C(C)(C)C)c4)c3n2)ccc1N1CCN(C)CC1
IC50 (BRD4-BD1): 431 nM | IC50 (BRD4-BD2): 130 nM | IC50 (BRD2-BD1): 743 nM | IC50 (BRD3-BD1): 161 nM | IC50 (BRDT-BD1): 363 nM | IC50 (JAK1): 293 nM | IC50 (JAK3): 82 nM

Cc1cnc(Nc2ccc(OCCN3CCCC3)cc2)nc1Nc1cccc(NS(=O)(=O)C(C)(C)C)c1
IC50 (BRD4-BD1): 420 nM | IC50 (BRD4-BD2): 451 nM | IC50 (BRD2-BD1): 682 nM | IC50 (BRD3-BD1): 853 nM | IC50 (BRDT-BD1): 638 nM | IC50 (JAK2): 2.3 nM | IC50 (JAK3): 185 nM

CN1CCN(c2ccc(Nc3ncc4ccn(-c5cccc(NS(=O)(=O)C(C)(C)C)c5)c4n3)cc2)CC1 [drawing 260]
IC50 (BRD4-BD1): 220 nM | IC50 (BRD4-BD2): 175 nM | IC50 (BRD2-BD1): 700 nM | IC50 (BRD3-BD1): 270 nM | IC50 (BRDT-BD1): 696 nM | IC50 (JAK1): 243 nM | IC50 (JAK3): 127 nM
